The Deep4Chem optical property database
Values joined by “and” are separate entries in the source; they are usually repeats but may differ in a detail not shown here. Equal values may be shown once.

Assay: solvent given as SMILES

SMILES: CC1=CC(c2ccc(N(C)C)cc2)=[N+]2C1=Nc1c(C)cc(-c3ccc(N(C)C)cc3)n1[B-]2(F)F
- emission maximum (in C1CCOC1): 791 nm
- emission maximum (in CS(C)=O): 822 nm
- emission maximum (in Cc1ccccc1): 779 nm

SMILES: F[B-]1(F)n2c(c(Sc3ccccc3)c3c2-c2ccccc2CC3)C=C2C(Sc3ccccc3)=C3CCc4ccccc4C3=[N+]21
- emission maximum (in CC#N): 661 nm

SMILES: CCC1=C(C)C2=C(c3cc(C4=C5C(C)=C(CC)C(C)=[N+]5[B-](F)(F)n5c(C)c(CC)c(C)c54)cc(C4=C5C(C)=C(CC)C(C)=[N+]5[B-](F)(F)n5c(C)c(CC)c(C)c54)c3)c3c(C)c(CC)c(C)n3[B-](F)(F)[N+]2=C1C
- emission maximum (in C1CCOC1): 567 nm
- emission maximum (in CC#N): 556 nm
- emission maximum (in CN(C)C=O): 570 nm
- emission maximum (in Cc1ccccc1): 571 nm
- emission maximum (in ClC(Cl)Cl): 571 nm

SMILES: COC(=O)c1cc(=O)n(C)c2cc(-c3ccccc3)sc12
- emission maximum (in CC#N): 462 nm
- emission maximum (in ClCCl): 462 nm

SMILES: CCC(CC)COC1=CC2=C3c4cc(OCC(CC)CC)c(-c5cccs5)n4[B-](F)(F)[n+]4c3n(c3cc(C(C)(C)C)ccc34)[B-](F)(F)[N+]2=C1c1cccs1
- emission maximum (in C1CCOC1): 809 nm
- emission maximum (in ClCCl): 811 nm

SMILES: COC1=[N+]2C(=C(c3ccc(C)cc3)c3ccc(OC)n3[B-]2(F)F)C=C1
- emission maximum (in C1CCCCC1): 525 nm
- emission maximum (in C1CCOC1): 528 nm
- emission maximum (in CC#N): 522 nm
- emission maximum (in CCOC(C)=O): 526 nm
- emission maximum (in CO): 523 nm
- emission maximum (in Cc1ccccc1): 530 nm
- emission maximum (in ClC(Cl)Cl): 529 nm

SMILES: Ic1ccc(-c2c3ccc(=[N+]4CCCCC4)cc-3oc3cc(N4CCCCC4)ccc23)cc1
- emission maximum (in CCO): 592 nm
- emission maximum (in ClCCl): 590 nm

SMILES: Oc1ccc2ccccc2c1/C=N/c1cc2nc3ccccc3nc2cc1/N=C/c1c(O)ccc2ccccc12
- emission maximum (in CC#N): 525 nm

SMILES: CC(C)(C)c1ccc2c(c1)c1cc(C(C)(C)C)cc3c1n2-c1cc(-c2cccc(F)c2)cc2c1B3c1cc(C(C)(C)C)cc3c4cc(C(C)(C)C)ccc4n-2c13
- emission maximum (in Cc1ccccc1): 493.65 nm

SMILES: Fc1cc(-c2ccc(-c3nc4cc(Br)ccc4[nH]3)cc2)ccc1-c1ccc(-c2nc3cc(Br)ccc3[nH]2)cc1
- emission maximum (in CN(C)C=O): 417 nm

SMILES: COc1cccc2cc(C)c3c4ccccc4[nH]c3c12
- emission maximum (in ClCCl): 365 nm

SMILES: O=C1c2cc(F)ccc2-c2cnccc21
- emission maximum (in CC#N): 540.43 nm
- emission maximum (in CCCCCC): 486.26 nm

SMILES: Cc1cc(C)n2c1C=C1C(=O)N(C)C(c3ccc([N+](=O)[O-])cc3)=[N+]1[B-]2(F)F
- emission maximum (in CCCCCC): 587 nm

SMILES: C[Si]1(C)O[Si](C)(C)c2cc3c(-c4ccccc4)c4ccccc4nc3cc21
- emission maximum (in ClCCl): 502 nm

SMILES: COc1ccc(-c2ccc(OC)cc2)cc1
- emission maximum (in C1CCCCC1): 363.77 nm

SMILES: CCCCOc1cc(C=C2c3ccccc3-c3ccccc32)c(OCCCC)cc1C=C1c2ccccc2C=Cc2ccccc21
- emission maximum (in C1CCOC1): 472 nm

SMILES: N[C@@H](Cn1nnc2cc(-c3ccc(-c4ccsc4)cc3)ccc21)C(=O)O
- emission maximum (in CO): 384 nm

SMILES: CCCCCCN(c1ccccc1)c1ccc2c(c1)C(CC)(CC)c1cc(/C=C/c3ccc(/C=C(\C#N)C(=O)O)s3)ccc1-2
- emission maximum (in C1CCOC1): 651 nm
- emission maximum (in C1COCCO1): 620 nm
- emission maximum (in CC#N): 554 nm
- emission maximum (in CC(C)=O): 574 nm
- emission maximum (in CCOC(C)=O): 654 nm
- emission maximum (in CN(C)C=O): 605 nm
- emission maximum (in CS(C)=O): 627 nm
- emission maximum (in ClCCl): 594 nm

SMILES: CC1(C)C(/C=C/C2=C(Cl)C(=C/C=C3/N(CCCS(=O)(=O)[O-])c4ccccc4C3(C)C)/CCC2)=[N+](CCCS(=O)(=O)[O-])c2ccccc21
- emission maximum (in CO): 802 nm

SMILES: c1ccc2c(-c3cc(-c4nccs4)nc(-c4nccs4)c3)cccc2c1
- emission maximum (in CC#N): 386 nm
- emission maximum (in CCCCCC): 359 nm
- emission maximum (in CO): 422 nm
- emission maximum (in ClC(Cl)Cl): 377 nm

SMILES: CN(C)c1ccc(/C=C/C=C/c2nc3ccccc3o2)cc1
- emission maximum (in C1COCCO1): 508 nm
- emission maximum (in CC#N): 535 nm
- emission maximum (in CC(C)=O): 531 nm
- emission maximum (in CCCCCC): 474 nm
- emission maximum (in CCCCO): 525 nm
- emission maximum (in CCCO): 526 nm
- emission maximum (in CCO): 531 nm
- emission maximum (in CN(C)C=O): 538 nm
- emission maximum (in CO): 539 nm
- emission maximum (in Cc1ccccc1): 496 nm
- emission maximum (in ClC(Cl)(Cl)Cl): 491 nm
- emission maximum (in ClC(Cl)Cl): 517 nm
- emission maximum (in ClCCl): 525 nm
- emission maximum (in OCC(O)CO): 566 nm
- emission maximum (in OCCO): 562 nm
- emission maximum (in c1ccccc1): 503 nm

SMILES: F[B-]1(F)n2cccc2C(c2ccccc2)=C2C=CC(c3ccc(OC4=[N+]5C(=C(c6ccccc6)c6cc(Br)c(Br)n6[B-]5(F)F)C=C4Br)cc3)=[N+]21
- emission maximum (in ClC(Cl)Cl): 574 nm

SMILES: Cc1ccc(-c2c3nc(c(-c4ccc(C)cc4)c4ccc([nH]4)c(-c4ccc(OC(=O)C(C)c5ccc(CC(C)C)cc5)cc4)c4nc(c(-c5ccc(C)cc5)c5ccc2[nH]5)C=C4)C=C3)cc1 (stereo not drawn)
- emission maximum (in ClCCl): 652 nm

SMILES: CC1(C)C(/C=C/C2=C(Oc3ccc(CCN=C=S)cc3)C(=C/C=C3/N(CCCS(=O)(=O)[O-])c4ccccc4C3(C)C)/CCC2)=[N+](CCCS(=O)(=O)[O-])c2ccccc21
- emission maximum (in CO): 794 nm

SMILES: COc1cc2c(cc1/C=C/C(=C(C#N)C#N)c1ccccc1)c1ccccc1n2C
- emission maximum (in C1CCOC1): 568 nm
- emission maximum (in CC#N): 589 nm
- emission maximum (in CCO): 575 nm
- emission maximum (in CCOC(C)=O): 549 nm and 548 nm
- emission maximum (in CN(C)C=O): 573 nm
- emission maximum (in CO): 575 nm
- emission maximum (in CS(C)=O): 581 nm
- emission maximum (in Cc1ccccc1): 566 nm
- emission maximum (in ClC(Cl)Cl): 554 nm
- emission maximum (in ClCCl): 560 nm

SMILES: CC1=C2C=CC=[N+]2[B-](F)(F)n2cccc21
- emission maximum (in CCCCCC): 506 nm
- emission maximum (in CO): 503 nm
- emission maximum (in ClCCl): 507 nm

SMILES: C(#Cc1c(C#Cc2ccccc2)c(C#Cc2ccccc2)c(C#Cc2ccccc2)c(C#Cc2ccccc2)c1C#Cc1ccccc1)c1ccccc1
- emission maximum (in ClCCl): 452 nm

SMILES: CN(C)c1ccc(-c2ccc(-c3ccc(N(C)C)cc3)c3nc(-c4ccccc4)c(-c4ccccc4)nc23)cc1
- emission maximum (in C1CCOC1): 601 nm
- emission maximum (in CC#N): 646 nm
- emission maximum (in CCCCCC): 538 nm
- emission maximum (in CN(C)C=O): 648 nm
- emission maximum (in Cc1ccccc1): 577 nm
- emission maximum (in ClC(Cl)Cl): 597 nm

SMILES: O=c1oc2ccccc2cc1-c1cn2ccccc2n1
- emission maximum (in ClC(Cl)Cl): 456 nm

SMILES: CC(C)CCCCN1CCc2c1ccc1c3c(ccc21)CCCC3=O
- emission maximum (in C1CCCCC1): 507 nm
- emission maximum (in CC#N): 625 nm
- emission maximum (in CC(C)O): 637 nm
- emission maximum (in CCC(C)=O): 612 nm
- emission maximum (in CCO): 539 nm
- emission maximum (in CCOC(C)=O): 586 nm
- emission maximum (in CS(C)=O): 643 nm
- emission maximum (in Cc1ccccc1): 554 nm
- emission maximum (in ClCCl): 595 nm
- emission maximum (in Clc1ccccc1): 573 nm

SMILES: CC/[NH+]=c1\cc2oc3cc(NCCC(=O)O)c4ccccc4c3nc-2cc1C
- emission maximum (in CCO): 644 nm
- emission maximum (in O): 652 nm

SMILES: Nc1ccc2c3c(cccc13)C(=O)c1ccccc1-2
- emission maximum (in CC#N): 626.17 nm
- emission maximum (in CC(C)=O): 610.13 nm
- emission maximum (in CC(C)O): 664.89 nm
- emission maximum (in CCCCOCCCC): 570.13 nm
- emission maximum (in CCOC(C)=O): 592.07 nm
- emission maximum (in CCOCC): 585.14 nm
- emission maximum (in CO): 667.11 nm
- emission maximum (in Cc1ccccc1): 569.15 nm
- emission maximum (in Clc1ccccc1): 579.04 nm
- emission maximum (in N#Cc1ccccc1): 610.13 nm
- emission maximum (in O=C1CCCCC1): 610.13 nm

SMILES: COC(=O)CN1C(=O)c2cc3ccc(N(C)C)cc3cc2C1=O
- emission maximum (in C1CCOC1): 510 nm
- emission maximum (in CC#N): 549 nm
- emission maximum (in CC(C)=O): 532 nm
- emission maximum (in CCO): 584 nm
- emission maximum (in Cc1ccccc1): 491 nm
- emission maximum (in ClC(Cl)Cl): 509 nm

SMILES: c1ccc(-n2c3c(c4c2-c2ccccc2C42c4ccccc4-c4ccccc42)C2(c4ccccc4-c4ccccc42)c2ccccc2-3)cc1
- emission maximum (in C1CCOC1): 408 nm

SMILES: COc1ccc(/C=C/c2ccccc2)cc1OC
- emission maximum (in C1CCCCC1): 372 nm
- emission maximum (in CC#N): 385 nm
- emission maximum (in CC(C)O): 374 nm
- emission maximum (in CCCCOCCCC): 375 nm
- emission maximum (in CCOC(C)=O): 382 nm
- emission maximum (in CCOCC): 373 nm

SMILES: c1cc(-c2ccc3sc4ccccc4c3c2)cc(-c2cc(-c3cccc(-c4ccc5sc6ccccc6c5c4)c3)ncn2)c1
- emission maximum (in ClCCl): 411 nm

SMILES: CCOC(=O)CCCn1c(C(=O)OC)c(C)c2c(=O)n3c(cc21)C(CC)=C(C)C3=O
- emission maximum (in C1CCCCC1): 434 nm
- emission maximum (in CO): 499 nm
- emission maximum (in CS(C)=O): 481 nm
- emission maximum (in ClC(Cl)Cl): 456 nm
- emission maximum (in c1ccccc1): 446 nm

SMILES: CCCC1(CCC)c2cc(-c3ccccc3)ccc2-c2ccc(-c3ccc4c(c3)C(CCC)(CCC)c3cc(-c5ccccc5)ccc3-4)cc21
- emission maximum (in C1CCCCC1): 387 nm

SMILES: CC(C)(C)c1ccc(-c2nc3c4ccc(-c5c6ccccc6cc6ccccc56)cc4c4cc(-c5c6ccccc6cc6ccccc56)ccc4c3n2-c2ccc(C(C)(C)C)cc2)cc1
- emission maximum (in C1CCOC1): 428 nm
- emission maximum (in C1COCCO1): 429 nm
- emission maximum (in CC#N): 455 nm
- emission maximum (in CCCCCC): 419 nm
- emission maximum (in CCCCOCCCC): 424 nm
- emission maximum (in CCN(CC)CC): 421 nm
- emission maximum (in CCOC(C)=O): 429 nm
- emission maximum (in CCOCC): 424 nm
- emission maximum (in CN(C)C=O): 451 nm
- emission maximum (in Cc1ccccc1): 428 nm
- emission maximum (in ClC=C(Cl)Cl): 429 nm
- emission maximum (in ClCCl): 442 nm

SMILES: c1ccc2c(c1)ccc1ccccc12
- emission maximum (in Cc1ccccc1): 350 nm

SMILES: Oc1ccc(Br)cc1-c1nc2c(c3c1-c1ccccc1CC3)-c1ccccc1CC2
- emission maximum (in ClCCl): 421 nm

SMILES: O=C(c1ccc2c3c(cccc13)-c1cccc3c1C2CC=C3)c1c(Cc2ccccc2)c2ccc3cccc4c5cccc6ccc1c(c65)c2c34 (stereo not drawn)
- emission maximum (in ClCCl): 528 nm

SMILES: CCC(C)Nc1c2ccc(=[N+]3CCCCC3)cc-2oc2cc(N3CCCCC3)ccc12 (stereo not drawn)
- emission maximum (in ClCCl): 537 nm

SMILES: Cc1ccc2[nH]c(-c3ccc(-c4ccc(-c5ccc(-c6nc7cc(C)ccc7[nH]6)cc5)c(C)c4)cc3)nc2c1
- emission maximum (in CN(C)C=O): 408 nm

SMILES: Cc1cc(C)c(C2=C3C=CC=[N+]3[B-]3(c4ccc5ccc6cccc7ccc4c5c67)Oc4cc(O)cc5c6ccc(C)cc6c6cc2n3c6c45)c(C)c1 (stereo not drawn)
- emission maximum (in ClC(Cl)Cl): 670 nm

SMILES: CC(C)(C)NC1=CC2=c3cc(NC(C)(C)C)c4nc(C(F)(F)C(F)(F)C(F)(F)F)nc5c(NC(C)(C)C)cc(c3c54)C3=CC(NC(C)(C)C)=C4N=C(C(F)(F)C(F)(F)C(F)(F)F)N=C1C4C32 (stereo not drawn)
- emission maximum (in C1CCOC1): 666 nm
